ChEMBL document CHEMBL3885861, “Open TG-GATES”

Organism: Rattus norvegicus
Assay: Open TG-GATES - Regimen: Daily Repeat
Assay type: toxicity, organism-based, Sprague-Dawley
Set-up: regimen Daily Repeat, gender Male, age 6 weeks
Conditions: in vivo, po, 4000 mg/kg, route gavage, dose level High; for APTT / Bas / Eos / Fbg / Hb / Ht / Lym / MCH / MCHC / MCV / Mono / Neu / PT / Plat / RBC / Ret / WBC: tissue Blood; for KIDNEY_L / KIDNEY_R / KIDNEY_TOTAL: tissue Kidney; for LIVER: tissue Liver; for A/G / ALP / ALT / AST / BUN / CRE / Ca / Cl / DBIL / GLC / IP / K / LDH / Na / PL / RALB / TBIL / TC / TG / TP / gamma-GTP: tissue Plasma

CCO [ALCOHOL]
TERMINAL_BW (72 h, time 3 day): 222.6 g
APTT (72 h, time 3 day): 17.5 s
Bas (72 h, time 3 day): 0%
Eos (72 h, time 3 day): 1.4%
Fbg (72 h, time 3 day): 223.4 mg/dL
Hb (72 h, time 3 day): 14 g/dL
Ht (72 h, time 3 day): 41.5%
Lym (72 h, time 3 day): 78%
MCH (72 h, time 3 day): 20.9 pg
MCHC (72 h, time 3 day): 33.7%
MCV (72 h, time 3 day): 62.1 fL
Mono (72 h, time 3 day): 5.6%
Neu (72 h, time 3 day): 15.8%
PT (72 h, time 3 day): 11.3 s
Plat (72 h, time 3 day): 129.6 x10_4/uL
RBC (72 h, time 3 day): 669.2 x10_4/ul
Ret (72 h, time 3 day): 5.5%
WBC (72 h, time 3 day): 91 x10_2/uL
KIDNEY_L (72 h, time 3 day): 1 g
KIDNEY_R (72 h, time 3 day): 1 g
KIDNEY_TOTAL (72 h, time 3 day): 2 g
LIVER (72 h, time 3 day): 10.5 g
A/G (72 h, time 3 day): 2.3
ALP (72 h, time 3 day): 775 IU/L
ALT (72 h, time 3 day): 32 IU/L
AST (72 h, time 3 day): 61 IU/L
BUN (72 h, time 3 day): 16.8 mg/dL
CRE (72 h, time 3 day): 0.5 mg/dL
Ca (72 h, time 3 day): 10.7 mg/dL
Cl (72 h, time 3 day): 103.6 meq/L
DBIL (72 h, time 3 day): 0.022 mg/dL
GLC (72 h, time 3 day): 206 mg/dL
IP (72 h, time 3 day): 8.2 mg/dL
K (72 h, time 3 day): 4.7 meq/L
LDH (72 h, time 3 day): 95.2 IU/L
Na (72 h, time 3 day): 140 meq/L
PL (72 h, time 3 day): 146.4 mg/dL
RALB (72 h, time 3 day): 4 g/dL
TBIL (72 h, time 3 day): 0.3 mg/dL
TC (72 h, time 3 day): 77.6 mg/dL
TG (72 h, time 3 day): 124.4 mg/dL
TP (72 h, time 3 day): 5.7 g/dL
gamma-GTP (72 h, time 3 day): 1.4 IU/L
TERMINAL_BW ([…], time 7 day): 252.2 g
TERMINAL_BW ([…], time 14 day): 307.3 g
TERMINAL_BW ([…], time 28 day): 369.5 g
APTT ([…], time 7 day): 18.2 s
Bas ([…], time 7 day): 0%
Eos ([…], time 7 day): 1%
Fbg ([…], time 7 day): 216.8 mg/dL
Hb ([…], time 7 day): 14.1 g/dL
Ht ([…], time 7 day): 41.6%
Lym ([…], time 7 day): 71%
MCH ([…], time 7 day): 20.7 pg
MCHC ([…], time 7 day): 33.8%
MCV ([…], time 7 day): 61.1 fL
Mono ([…], time 7 day): 6.4%
Neu ([…], time 7 day): 21.8%
PT ([…], time 7 day): 11.5 s
Plat ([…], time 7 day): 110.2 x10_4/uL
RBC ([…], time 7 day): 680.2 x10_4/ul
Ret ([…], time 7 day): 5.4%
WBC ([…], time 7 day): 93.3 x10_2/uL
APTT ([…], time 14 day): 16.8 s
Bas ([…], time 14 day): 0%
Eos ([…], time 14 day): 0.8%
Fbg ([…], time 14 day): 217.6 mg/dL
Hb ([…], time 14 day): 15 g/dL
Ht ([…], time 14 day): 45%
Lym ([…], time 14 day): 82.8%
MCH ([…], time 14 day): 20.4 pg
MCHC ([…], time 14 day): 33.3%
MCV ([…], time 14 day): 61.2 fL
Mono ([…], time 14 day): 5%
Neu ([…], time 14 day): 11.4%
PT ([…], time 14 day): 11.5 s
Plat ([…], time 14 day): 112.1 x10_4/uL
RBC ([…], time 14 day): 737 x10_4/ul
Ret ([…], time 14 day): 4.1%
WBC ([…], time 14 day): 125 x10_2/uL
APTT ([…], time 28 day): 16.3 s
Bas ([…], time 28 day): 0%
Eos ([…], time 28 day): 1.6%
Fbg ([…], time 28 day): 210.6 mg/dL
Hb ([…], time 28 day): 15.5 g/dL
Ht ([…], time 28 day): 46.4%
Lym ([…], time 28 day): 70.4%
MCH ([…], time 28 day): 19.2 pg
MCHC ([…], time 28 day): 33.5%
MCV ([…], time 28 day): 57.2 fL
Mono ([…], time 28 day): 7.6%
Neu ([…], time 28 day): 20.6%
PT ([…], time 28 day): 11.4 s
Plat ([…], time 28 day): 106.5 x10_4/uL
RBC ([…], time 28 day): 813.2 x10_4/ul
Ret ([…], time 28 day): 6%
WBC ([…], time 28 day): 123.4 x10_2/uL
KIDNEY_L ([…], time 7 day): 1.1 g
KIDNEY_R ([…], time 7 day): 1.1 g
KIDNEY_TOTAL ([…], time 7 day): 2.1 g
KIDNEY_L ([…], time 14 day): 1.2 g
KIDNEY_R ([…], time 14 day): 1.2 g
KIDNEY_TOTAL ([…], time 14 day): 2.5 g
KIDNEY_L ([…], time 28 day): 1.3 g
KIDNEY_R ([…], time 28 day): 1.3 g
KIDNEY_TOTAL ([…], time 28 day): 2.7 g
LIVER ([…], time 7 day): 11.7 g
LIVER ([…], time 14 day): 13.6 g
LIVER ([…], time 28 day): 15 g
A/G ([…], time 7 day): 2.4
ALP ([…], time 7 day): 842.2 IU/L
ALT ([…], time 7 day): 32.6 IU/L
AST ([…], time 7 day): 63 IU/L
BUN ([…], time 7 day): 17 mg/dL
CRE ([…], time 7 day): 0.5 mg/dL
Ca ([…], time 7 day): 10.6 mg/dL
Cl ([…], time 7 day): 103.8 meq/L
DBIL ([…], time 7 day): 0 mg/dL
GLC ([…], time 7 day): 206.8 mg/dL
IP ([…], time 7 day): 8.1 mg/dL
K ([…], time 7 day): 4.4 meq/L
LDH ([…], time 7 day): 92.2 IU/L
Na ([…], time 7 day): 141.2 meq/L
PL ([…], time 7 day): 145.6 mg/dL
RALB ([…], time 7 day): 4.1 g/dL
TBIL ([…], time 7 day): 0.3 mg/dL
TC ([…], time 7 day): 68.2 mg/dL
TG ([…], time 7 day): 99.6 mg/dL
TP ([…], time 7 day): 5.9 g/dL
gamma-GTP ([…], time 7 day): 1.4 IU/L
A/G ([…], time 14 day): 1.9
ALP ([…], time 14 day): 806.4 IU/L
ALT ([…], time 14 day): 37.8 IU/L
AST ([…], time 14 day): 71.4 IU/L
BUN ([…], time 14 day): 18.6 mg/dL
CRE ([…], time 14 day): 0.6 mg/dL
Ca ([…], time 14 day): 10.8 mg/dL
Cl ([…], time 14 day): 104.2 meq/L
DBIL ([…], time 14 day): 0.05 mg/dL
GLC ([…], time 14 day): 207.2 mg/dL
IP ([…], time 14 day): 7.9 mg/dL
K ([…], time 14 day): 4.5 meq/L
LDH ([…], time 14 day): 121.4 IU/L
Na ([…], time 14 day): 141.6 meq/L
PL ([…], time 14 day): 160.8 mg/dL
RALB ([…], time 14 day): 3.9 g/dL
TBIL ([…], time 14 day): 0.3 mg/dL
TC ([…], time 14 day): 78.8 mg/dL
TG ([…], time 14 day): 143 mg/dL
TP ([…], time 14 day): 6 g/dL
gamma-GTP ([…], time 14 day): 1 IU/L
A/G ([…], time 28 day): 1.8
ALP ([…], time 28 day): 599.4 IU/L
ALT ([…], time 28 day): 34.6 IU/L
AST ([…], time 28 day): 66.6 IU/L
BUN ([…], time 28 day): 19.6 mg/dL
CRE ([…], time 28 day): 0.6 mg/dL
Ca ([…], time 28 day): 10.3 mg/dL
Cl ([…], time 28 day): 107 meq/L
DBIL ([…], time 28 day): 0.006 mg/dL
GLC ([…], time 28 day): 213.6 mg/dL
IP ([…], time 28 day): 6.2 mg/dL
K ([…], time 28 day): 4.5 meq/L
LDH ([…], time 28 day): 89.6 IU/L
Na ([…], time 28 day): 140.4 meq/L
PL ([…], time 28 day): 153.6 mg/dL
RALB ([…], time 28 day): 3.9 g/dL
TBIL ([…], time 28 day): 0.3 mg/dL
TC ([…], time 28 day): 73.2 mg/dL
TG ([…], time 28 day): 173.4 mg/dL
TP ([…], time 28 day): 6.1 g/dL
gamma-GTP ([…], time 28 day): 1.4 IU/L
